{"source": "patent US8124121B2", "about": "“Flavors, flavor modifiers, tastants, taste enhancers, umami or sweet tastants, and/or enhancers and use thereof” (Senomyx, Inc., priority 2003, dated 2012)", "data": [{"biological_target": "T1, hT1R1/hT1R3 umami receptor (Homo sapiens, UniProt Q7RTX0+Q7RTX1)", "T1 construct": "expressed in transfected cells; host or cells: HEK293 derivative stably expressing Gα15, clone I-17, expression induced with mifepristone", "T1 sequence (Q7RTX1 21-841)": "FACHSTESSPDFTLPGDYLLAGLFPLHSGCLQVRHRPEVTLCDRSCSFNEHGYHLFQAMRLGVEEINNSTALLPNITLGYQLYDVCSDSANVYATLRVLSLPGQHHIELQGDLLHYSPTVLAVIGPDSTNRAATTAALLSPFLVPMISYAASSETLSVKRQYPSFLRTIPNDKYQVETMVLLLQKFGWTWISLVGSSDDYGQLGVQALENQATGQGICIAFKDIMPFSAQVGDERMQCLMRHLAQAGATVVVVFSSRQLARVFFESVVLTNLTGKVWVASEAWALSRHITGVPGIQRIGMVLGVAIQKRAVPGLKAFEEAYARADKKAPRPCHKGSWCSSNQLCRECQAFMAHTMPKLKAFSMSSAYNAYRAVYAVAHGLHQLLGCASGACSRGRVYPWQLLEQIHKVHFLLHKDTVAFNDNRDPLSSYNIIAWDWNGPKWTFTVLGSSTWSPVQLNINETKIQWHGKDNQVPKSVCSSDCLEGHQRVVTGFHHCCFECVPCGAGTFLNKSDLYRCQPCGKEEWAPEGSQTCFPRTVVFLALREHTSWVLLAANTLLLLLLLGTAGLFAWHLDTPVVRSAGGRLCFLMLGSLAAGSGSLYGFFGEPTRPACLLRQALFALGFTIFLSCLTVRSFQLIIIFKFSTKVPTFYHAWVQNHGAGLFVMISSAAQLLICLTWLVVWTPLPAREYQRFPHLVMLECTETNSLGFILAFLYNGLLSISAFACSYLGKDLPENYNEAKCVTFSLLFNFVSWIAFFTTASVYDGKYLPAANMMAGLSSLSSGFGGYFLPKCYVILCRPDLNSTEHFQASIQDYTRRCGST", "T1 sequence (Q7RTX0 21-852)": "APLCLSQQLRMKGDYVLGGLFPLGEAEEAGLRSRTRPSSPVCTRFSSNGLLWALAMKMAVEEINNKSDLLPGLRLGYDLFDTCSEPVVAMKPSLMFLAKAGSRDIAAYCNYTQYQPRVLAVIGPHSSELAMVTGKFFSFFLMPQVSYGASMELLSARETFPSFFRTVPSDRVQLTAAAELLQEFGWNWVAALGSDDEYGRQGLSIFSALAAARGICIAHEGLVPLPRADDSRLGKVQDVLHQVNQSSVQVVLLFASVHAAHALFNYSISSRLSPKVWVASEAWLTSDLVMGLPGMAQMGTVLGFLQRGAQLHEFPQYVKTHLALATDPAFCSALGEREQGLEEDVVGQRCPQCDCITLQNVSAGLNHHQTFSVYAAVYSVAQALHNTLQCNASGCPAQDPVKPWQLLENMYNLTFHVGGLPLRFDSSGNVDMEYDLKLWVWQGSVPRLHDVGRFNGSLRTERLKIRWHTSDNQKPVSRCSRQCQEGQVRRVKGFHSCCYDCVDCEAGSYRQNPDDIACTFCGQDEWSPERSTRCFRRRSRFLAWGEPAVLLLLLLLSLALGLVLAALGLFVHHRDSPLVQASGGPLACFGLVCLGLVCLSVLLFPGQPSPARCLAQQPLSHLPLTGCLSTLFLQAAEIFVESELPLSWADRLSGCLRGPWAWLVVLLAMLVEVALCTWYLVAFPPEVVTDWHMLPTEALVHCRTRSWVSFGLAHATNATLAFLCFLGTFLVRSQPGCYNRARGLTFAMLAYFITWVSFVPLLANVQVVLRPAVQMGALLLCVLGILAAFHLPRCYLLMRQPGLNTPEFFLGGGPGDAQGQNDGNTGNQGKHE", "experiment": "Umami taste enhancement activity assay (EC50 ratio vs. MSG)", "format": "cell-based", "details": "Table A; compound @ 0.3 uM", "method": "(§1) A series of measurements of the dose response is run in solutions comprising MSG alone, then a second dose response is run with MSG in combination with predetermined amounts of a candidate compound of Formula (I) at the same time.\n(§2) Typical compound concentrations tested were 30 μM, 10 μM, 3 μM, 1 μM, 0.3 μM, 0.1 μM and 0.03 μM. The relative efficacy of compounds of Formula (I) at enhancing the receptor was determined by calculating the magnitude of a shift in the EC50 for monosodium glutamate. Enhancement was defined as a ratio (EC50R) corresponding to the EC50 of monosodium glutamate, determined in the absence of the test compound, divided by the EC50 of monosodium glutamate, determined in the presence of the test compound.\n(§3) Stated alternatively, “EC50 ratio” as compared to MSG is calculated based on the following definitions: EC50 Ratio vs. MSG=EC50 (MSG)/EC50(MSG+[Compound]) • wherein “[compound]” refers to the concentration of the compound of Formula (I) used to elicit (or enhance or potentiate) the MSG dose response.", "values": [{"smiles": "CCC(COC)NC(=O)c1cc2cc(Cl)ccc2o1", "note": "(stereo not drawn) [Example A11, 5-chloro-N-(1-methoxybutan-2-yl)benzofuran-2-carboxamide]", "Ec50 ratio (vs. MSG)": 6.5}]}, {"biological_target": "T1, hT1R1/hT1R3 umami receptor", "experiment": "Umami taste enhancement activity assay (EC50 ratio vs. MSG)", "format": "cell-based", "details": "Table A; compound @ 1 uM", "method": "as §1, §2, §3", "values": [{"smiles": "CCCC(CCC)NC(=O)c1cc2cc(OC)ccc2o1", "note": "[Example A10, N-(heptan-4-yl)-5-methoxybenzofuran-2-carboxamide]", "Ec50 ratio (vs. MSG)": 4.51}, {"smiles": "Cc1ccc(C(=O)NC2CCCc3ccccc32)s1", "note": "(stereo not drawn) [Example A39, 5-Methyl-thiophene-2-carboxylic acid (1,2,3,4-tetrahydro-naphthalen-1-yl)-amide]", "Ec50 ratio (vs. MSG)": 2.3}, {"smiles": "COc1cccc(C(=O)NC2CCCc3ccccc32)c1O", "note": "(stereo not drawn) [Example A87, 2-hydroxy-3-methoxy-N-(1,2,3,4-tetrahydronaphthalen-1-yl)benzamide]", "Ec50 ratio (vs. MSG)": 3.8}, {"smiles": "COc1cccc(C(=O)N[C@H]2CCCc3ccccc32)c1O", "note": "[Example A93, (S)-2-hydroxy-3-methoxy-N-(1,2,3,4-tetrahydronaphthalen-1-yl)benzamide]", "Ec50 ratio (vs. MSG)": 5.7}]}, {"biological_target": "T1, hT1R1/hT1R3 umami receptor", "experiment": "Umami taste enhancement activity assay (EC50 ratio vs. MSG)", "format": "cell-based", "details": "Table C; compound Con. 0.3 uM", "method": "as §1, §2, §3", "values": [{"smiles": "CCOc1ccc(NC(=O)NC2CCCCC2C)cc1", "note": "(stereo not drawn) [Example C10, 1-(4-ethoxyphenyl)-3-(2-methylcyclohexyl)urea]", "Ec50 ratio (vs MSG)": 2.1}]}, {"biological_target": "T1, hT1R1/hT1R3 umami receptor", "experiment": "Umami taste enhancement activity assay (EC50 ratio vs. MSG)", "format": "cell-based", "details": "Table D; compound @ 1 uM", "method": "as §1, §2, §3", "values": [{"smiles": "CCCC(CCC)NC(=O)/C=C/c1cccs1", "note": "[Example D6, N-(1-Propyl-butyl)-3-thiophen-2-yl-acrylamide]", "Ec50 ratio (vs. MSG)": 6.3}]}, {"biological_target": "T1, hT1R1/hT1R3 umami receptor", "experiment": "Umami taste enhancement activity assay (EC50 ratio vs. MSG)", "format": "cell-based", "details": "compound present at 0.01 μM", "method": "as §1, §2, §3", "values": [{"smiles": "COC(=O)[C@@H](CC(C)C)NC(=O)c1ccc(OC)c(Cl)c1", "note": "[Example 62, (R)-methyl 2-(3-chloro-4-methoxybenzamido)-4-methylpentanoate]", "EC50 ratio (enhanced the effectiveness of monosodium glutamate)": 13.18}]}, {"biological_target": "T1, hT1R1/hT1R3 umami receptor", "experiment": "Umami taste enhancement activity assay (EC50 ratio vs. MSG)", "format": "cell-based", "details": "compound present at 0.03 μM", "method": "as §1, §2, §3", "values": [{"smiles": "CCCC(CCC)NC(=O)c1ccc2c(c1)OC(C)O2", "note": "(stereo not drawn) [Example 18, N-(heptan-4-yl)-2-methylbenzo[d][1,3]dioxole-5-carboxamide]", "EC50 ratio (enhanced the effectiveness of monosodium glutamate)": 3.68}]}, {"biological_target": "T1, hT1R1/hT1R3 umami receptor", "experiment": "Umami taste enhancement activity assay (EC50 ratio vs. MSG)", "format": "cell-based", "details": "compound present at 0.3 μM", "method": "as §1, §2, §3", "values": [{"smiles": "O=C(NC1CCCc2ccccc21)c1ccc2c(c1)OCO2", "note": "(stereo not drawn) [Example 7, N-(1,2,3,4-tetrahydronaphthalen-1-yl)benzo[d][1,3]dioxole-5-carboxamide]", "EC50 ratio (enhanced the effectiveness of monosodium glutamate)": 7.8}, {"smiles": "CCCC(CCC)NC(=O)c1cc2ccccc2o1", "note": "[Example 25, Benzofuran-2-carboxylic(1-propylbutyl)amide]", "EC50 ratio (enhanced the effectiveness of monosodium glutamate)": 2.6}, {"smiles": "CCC(CC)NC(=O)c1ccc(OC)c(Cl)c1", "note": "[Example 61, 3-chloro-4-methoxy-N-(pentan-3-yl)benzamide]", "EC50 ratio (enhanced the effectiveness of monosodium glutamate)": 6.28}, {"smiles": "COc1ccc(C(=O)N[C@H](C)c2ccccc2)cc1Cl", "note": "[Example 63, (R)-3-chloro-4-methoxy-N-(1-phenylethyl)benzamide]", "EC50 ratio (enhanced the effectiveness of monosodium glutamate)": 2.7}, {"smiles": "CCCC(CCC)NC(=O)/C=C/c1ccc(OC)c(OC)c1", "note": "[Example 87, 3-(3,4-Dimethoxy-phenyl)-N-(1-propyl-butyl)-acrylamide]", "EC50 ratio (enhanced the effectiveness of monosodium glutamate)": 2.4}, {"smiles": "Cc1cc(C(=O)NC(C)CCc2ccccc2)ccc1O", "note": "(stereo not drawn) [Example 111, 4-Hydroxy-3-methyl-N-(1-methyl-3-phenyl-propyl)-benzamide]", "EC50 ratio (enhanced the effectiveness of monosodium glutamate)": 7}, {"smiles": "O=C(NC1CCc2ccccc21)c1ccc2c(c1)OCO2", "note": "(stereo not drawn) [Example 118, Benzo[1,3]dioxole-5-carboxylic Acid indan-1-ylamide]", "EC50 ratio (enhanced the effectiveness of monosodium glutamate)": 5.33}, {"smiles": "COc1ccccc1CNC(=O)C(=O)NCCc1ccccn1", "note": "[Example 122, N-(2-Methoxy-benzyl)-N′-(2-pyridin-2-yl-ethyl)-oxalamide]", "EC50 ratio (enhanced the effectiveness of monosodium glutamate)": 18.85}, {"smiles": "CCCC(CCC)NC(=O)Nc1ccc(OC)cc1OC", "note": "[Example 159, 1-(2,4-dimethoxyphenyl)-3-(heptan-4-yl)urea]", "EC50 ratio (enhanced the effectiveness of monosodium glutamate)": 7.61}]}, {"biological_target": "T1, hT1R1/hT1R3 umami receptor", "experiment": "Umami taste enhancement activity assay (EC50 ratio vs. MSG)", "format": "cell-based", "details": "compound present at 1 μM", "method": "as §1, §2, §3", "values": [{"smiles": "CC1CCCC(NC(=O)c2ccc3c(c2)OCO3)C1C", "note": "(stereo not drawn) [Example 4, N-(2,3-dimethylcyclohexyl)benzo[d][1,3]dioxole-5-carboxamide]", "EC50 ratio (enhanced the effectiveness of monosodium glutamate)": 8.4}, {"smiles": "CCCC(CCC)NC(=O)c1ccc2c(c1)OC(F)(F)O2", "note": "[Example 22, 2,2-difluoro-N-(heptan-4-yl)benzo[d][1,3]dioxole-5-carboxamide]", "EC50 ratio (enhanced the effectiveness of monosodium glutamate)": 2.87}, {"smiles": "CCCC(CCC)NC(=O)c1ccc(OC)cc1C#N", "note": "[Example 97, 2-cyano-N-(heptan-4-yl)-4-methoxybenzamide]", "EC50 ratio (enhanced the effectiveness of monosodium glutamate)": 4.52}, {"smiles": "Cc1ccc(CCNC(=O)c2occc2C)cc1", "note": "[Example 120, 3-methyl-N-(p-tolylethyl)furan-2-carboxamide]", "EC50 ratio (enhanced the effectiveness of monosodium glutamate)": 3.3}, {"smiles": "COc1ccc(CNC(=O)c2ccccc2-n2cccc2)c(OC)c1", "note": "[Example 121, N-(2,4-dimethoxybenzyl)-2-(1H-pyrrol-1-yl)benzamide]", "EC50 ratio (enhanced the effectiveness of monosodium glutamate)": 11}, {"smiles": "CCCC(CCC)NC(=O)Nc1ccccc1Cl", "note": "[Example 158]", "EC50 ratio (enhanced the effectiveness of monosodium glutamate)": 4.95}, {"smiles": "CCOc1ccc(NC(=O)NCCc2ccccn2)cc1", "note": "[Example 160, 1-(4-ethoxyphenyl)-3-(2-(pyridine-2-yl)ethyl)urea]", "EC50 ratio (enhanced the effectiveness of monosodium glutamate)": 4.2}]}, {"biological_target": "T1, hT1R1/hT1R3 umami receptor", "experiment": "Umami taste enhancement activity assay (EC50 ratio vs. MSG)", "format": "cell-based", "details": "compound present at 3 μM", "method": "as §1, §2, §3", "values": [{"smiles": "CC(C)C[C@H](CO)NC(=O)c1ccc2c(c1)OCO2", "note": "[Example 8, (R)—N-(1-hydroxy-4-methylpentan-2-yl)benzo[d][1,3]dioxole-5-carboxamide]", "EC50 ratio (enhanced the effectiveness of monosodium glutamate)": 2}, {"smiles": "CCCC(COC(C)=O)NC(=O)c1ccc2c(c1)OCO2", "note": "(stereo not drawn) [Example 14, 2-(benzo[d][1,3]dioxole-6-carboxamido)pentyl Acetate]", "EC50 ratio (enhanced the effectiveness of monosodium glutamate)": 4.1}, {"smiles": "CCCC(CCC)NC(=O)c1ccc2c(c1)OC(CC(=O)OCC)O2", "note": "(stereo not drawn) [Example 19, Ethyl 2-(5-(heptan-4-ylcarbamoyl)benzo[d][1,3]dioxol-2-yl)acetate]", "EC50 ratio (enhanced the effectiveness of monosodium glutamate)": 2.5}, {"smiles": "CCCC(CCC)NC(=O)c1ccc2c(c1)OC(C(C)C)O2", "note": "(stereo not drawn) [Example 21, N-(heptan-4-yl)-2-isopropylbenzo[d][1,3]dioxole-5-carboxamide]", "EC50 ratio (enhanced the effectiveness of monosodium glutamate)": 2.2}, {"smiles": "O=C(NCc1ccc(OC(F)(F)F)cc1)c1ccsc1", "note": "[Example 107, Thiophene-3-carboxylic acid 4-trifluoromethoxy-benzylamide]", "EC50 ratio (enhanced the effectiveness of monosodium glutamate)": 8.5}, {"smiles": "COc1ccc(CNC(=O)c2sccc2C)c(OC)c1", "note": "[Example 108, 3-Methyl-thiophene-2-carboxylic Acid 2,4-dimethoxy-benzylamide]", "EC50 ratio (enhanced the effectiveness of monosodium glutamate)": 5.8}, {"smiles": "COc1ccc(CNC(=O)c2ccc(-c3ccccn3)s2)c(OC)c1", "note": "[Example 109, 5-Pyridin-2-yl-thiophene-2-carboxylic Acid 2,4-dimethoxy-benzylamide]", "EC50 ratio (enhanced the effectiveness of monosodium glutamate)": 8}, {"smiles": "COc1ccc(CNC(=O)c2ccnn2C)c(OC)c1", "note": "[Example 110, 2-Methyl-2H-pyrazole-3-carboxylic Acid 2,4-dimethoxy-benzylamide]", "EC50 ratio (enhanced the effectiveness of monosodium glutamate)": 7.9}]}]}
